Patent US10267796B2, “Screening methods of modulating adrenergic receptor gene expressions implicated in melanogenesis” (The Procter & Gamble Company, priority 2010, dated 2019)

Legend:
ADRβ1 receptors = ADRβ1 receptors (Homo sapiens, UniProt P08588); assay: ADRβ1 receptor antagonist screening (half maximal inhibitory concentration); assay type: binding
Text: Based on these inventive discoveries, a screening method for determining at least one test agent effective for modifying the appearance of pigmented skin is provided. The method comprises contacting a cell, a cell culture, or bulk cells with the test agent, wherein the cell, the cell culture, or the bulk cells comprise ADRβ1 receptors, and determining based on the binding interaction of the test agent with the ADRβ1 receptors whether the test agent is an effective ADRβ1 receptor antagonist suitable for modifying the appearance of pigmented skin, wherein a test agent is considered to be an effective ADRβ1 receptor antagonist when it defines a half maximal inhibitory concentration of less than about 1000 ppm.
The method further comprises determining whether test agents are effective for improving the appearance of pigmented skin if the test agent is an antagonist of the ADRβ1 receptors. In one embodiment, the test agent may be identified as an ADRβ1 receptor antagonist if the test agent defines a half maximal inhibitory concentration (IC50) of less than about 1000 ppm. In further embodiments, the ADRβ1 receptor antagonist defines a half maximal inhibitory concentration of less than about 100 ppm, or less than about 50 ppm. By utilizing this metric of maximal inhibitory concentration, it is possible to correlate the antagonistic activity of the ADRβ1 receptor antagonists with an ability of the ADRβ1 receptor antagonists to improve the appearance of hyper-pigmented spots in human skin. In further embodiments, when the ADRβ1 receptor antagonists bind to the ADRβ1 receptors, a luminescent reference signal may be generated, which may be measured by a luminometer, a fluorescence plate reader, or a fluorometer.
As shown below in Table 2, the present inventors have further recognized that modifying a test agent from a peptide to a palmitoylated peptide greatly improves its efficacy as an ADRβ1 inhibitor.

human skin explants = assay: Pigmentation gene expression in human skin explants; assay type: cell-based; conditions: compared with Stem Cell Factor & Endothelin (Endo-SCF), FIG. 5
Text: FIG. 5 is a graphical illustration depicting the effect of dobutamine on human skin explants.
As stated above, ADRβ1 and ADRβ2 stimulation result in elevated cAMP levels which drive tyrosinase production in known melanogenesis pathways.

B16-F1 cells = assay: B16 cell melanin synthesis assay; assay type: cell-based, murine; conditions: FIG. 4; for effect on melanin synthesis (% MS): increasing concentration (w/v %)
Text: Determining test agents suitable as ADRβ1 antagonists, ADRβ2 antagonists, or combinations thereof may utilize a melanin synthesis assay selected from the group consisting of a B16 cell assay or a skin model. The B16-F1 cells, which are murine melanoma cells obtained from American Tissue Culture Collection (ATCC), contain the synthetic machinery for melanin production and respond to some benchmark whitening/tanning agents. The following experiment depicts one exemplary method of determining the effect of test agents on melanin synthesis. In the experiment, 0.5 mL of B16-F1 cells are added to 29.5 ml of B16-F1 culture media to 2 separate T-150 flasks, and grown to near (˜80% ) confluency. The culture media B16-F1 comprises the following components as shown in Table 1 below: The cells from the T-150 flasks were trypsinized and counted with a hemacytometer. Then, cell vials (1×10^6 cell aliquots) were frozen in a mixture comprising 95% B16-F1 culture medium and 5% DMSO (Dimethyl sulfoxide) and placed in liquid Nitrogen. All cell culture reagents (except trypsin) were heated in a 37° C. water bath. On day zero, 29 mL of B16-F1 culture media was placed into a T-150 flask at 37° C. Then, a vial of the frozen cells was obtained, thawed in a 37° C. water bath, and placed in the T-150 flask. The flask was agitated to mix the cells with the media, and then the flask was incubated for 3 days at 37° C. in a humidified environment comprising 5% CO2. On day 3, the cells from the flask were trypsinized and the cell density was determined. At which point, the cells were split into a 96-well plate with 2,500 cells per well. At day 5, the cells were treated with the test agents. On day 7, the cells were assayed for melanin production and toxicity. […] As stated above, ADRβ1 and ADRβ2 stimulation result in elevated cAMP levels which drive tyrosinase production in known melanogenesis pathways.

Chain of ADRβ1 receptors (P08588 whole entry): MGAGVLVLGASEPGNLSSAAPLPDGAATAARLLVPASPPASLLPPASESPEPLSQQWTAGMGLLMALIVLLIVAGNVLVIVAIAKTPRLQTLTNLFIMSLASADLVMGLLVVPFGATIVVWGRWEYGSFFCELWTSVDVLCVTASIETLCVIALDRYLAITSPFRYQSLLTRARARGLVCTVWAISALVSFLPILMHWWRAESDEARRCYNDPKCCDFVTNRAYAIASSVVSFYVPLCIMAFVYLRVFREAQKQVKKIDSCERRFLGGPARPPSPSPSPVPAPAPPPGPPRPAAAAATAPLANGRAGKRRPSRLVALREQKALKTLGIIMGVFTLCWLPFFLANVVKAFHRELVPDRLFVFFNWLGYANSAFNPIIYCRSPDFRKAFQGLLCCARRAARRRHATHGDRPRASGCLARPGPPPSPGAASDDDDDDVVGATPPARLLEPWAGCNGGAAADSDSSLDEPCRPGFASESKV

In the case of GQPR, the “ADRβ1 IC 50 (ppm)” value (ADRβ1 receptors) is reported as 1200 ppm.
palGHK was tested, and the “ADRβ1 IC 50 (ppm)” value (ADRβ1 receptors) was 3.3 ppm.
AcetylGHK was tested, and the “ADRβ1 IC 50 (ppm)” value (ADRβ1 receptors) was 45 ppm.
In the case of `CC(CCc1ccc(O)cc1)NCCc1ccc(O)c(O)c1` (stereo not shown) [dobutamine], the pigmentation gene expression (human skin explants) is reported as “induces pigmentation gene expression in human skin explants more than the paracrine factors” and the “effect on melanin synthesis (% MS)” value (B16-F1 cells) is reported as “increases the melanin synthesis”.
With GHK the “ADRβ1 IC 50 (ppm)” value (ADRβ1 receptors) was 1100 ppm.
With palGQPR [palmitoylated GQPR peptide] the “ADRβ1 IC 50 (ppm)” value (ADRβ1 receptors) was 0.23 ppm.
With `CC(C)NCC(O)c1ccc(O)c(O)c1` (stereo not shown) [isoprenaline] the “melanin synthesis (% MS)” value (B16-F1 cells; as the concentration of isoprenaline increased) was roughly 300% and the “effect on melanin synthesis (% MS)” value (B16-F1 cells) was “increases the melanin synthesis”.
In the case of “AcetylGQPR [acetyl-modified GQPR peptide]”, the “ADRβ1 IC 50 (ppm)” value (ADRβ1 receptors) is reported as 45 ppm.
